Experimental data taken from patent publication US20080161249A1, “Use of Novel Antibacterial Compounds” (SMITHKLINE BEECHAM CORPORATION, priority 2004, published 2008).
In brackets after ≈: the same amount, converted by molar mass. Where two headings read alike, the source gives them in different places.

Tests used:
S. aureus WCUH29 = assay: MIC against S. aureus WCUH29, alone and with subinhibitory concentrations of a second agent; type: cell-based, Staphylococcus aureus; settings: for MIC: Staphylococcus aureus, WCUH29, S. aureus WCUH29
S. aureus strain Smith = assay: MIC against S. aureus strain Smith, alone and in combination; type: cell-based, Staphylococcus aureus; settings: for MIC: Staphylococcus aureus
S. aureus strain RN4220 = assay: MIC against S. aureus strain RN4220, alone and in combination; type: cell-based, Staphylococcus aureus; settings: for MIC: Staphylococcus aureus
S. aureus strain Oxford = assay: MIC against S. aureus strain Oxford, alone and in combination; type: cell-based, Staphylococcus aureus; settings: for MIC: Staphylococcus aureus
Excerpt: (§1) Subinhibitory Concentrations of PDF Inhibitors Decrease the MICs of Macrolides against Representative S. aureus Strains
(§2) Subinhibitory Concentrations of Macrolides Decrease the MICs of PDF Inhibitors against Representative S. aureus Strains

S. aureus strain PK1 = assay: MIC against S. aureus strain PK1, alone and in combination; type: cell-based, Staphylococcus aureus; settings: for MIC: Staphylococcus aureus
Excerpt: as §1, §2

H. influenzae Q1 = assay: MIC against H. influenzae Q1, alone and with subinhibitory concentrations of a second agent; type: cell-based, Haemophilus influenzae;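 further: combinations paired PDF inhibitors with macrolides, one class added below its own MIC to test whether the MIC of the other class dropped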
[1] = test system: representative S. aureus strains; assay: MIC against representative S. aureus strains, summary over strains; type: cell-based, Staphylococcus aureus
Excerpt: as §1, §2

[2] = S. aureus, text summary of Example 4
[3] = no second agent, read-out: MIC, single agent
[4] = single agent, read-out: MIC, Compound (1a) alone
[5] = with ¼ MIC of Tylosin, read-out: MIC, Compound (1a) with ¼ MIC of Tylosin
[6] = with ½ MIC of Tylosin, read-out: MIC, Compound (1a) with ½ MIC of Tylosin
[7] = H. influenzae Q1, +0.25 ug/m Azithromycin
[8] = H. influenzae Q1, +0.5 ug/mL Azithromycin
[9] = S. aureus WCUH29, +0.5 ug/mL Compound (1a)
[10] = S. aureus WCUH29, +1 ug/mL Compound (1a)
[11] = macrolide alone, read-out: MIC, −Compound (1a)
[12] = H. influenzae Q1, +0.5 ug/mL Compound (1a)
[13] = H. influenzae Q1, +1 ug/mL Compound (1a)

CCCCC[C@H](CN(O)C=O)C(=O)NNc1nccc(C(F)(F)F)n1 [Compound (1a), N-hydroxy-N-{(R)-2-[N′-(4-trifluoromethyl-pyrimidin-2-yl)-hydrazinocarbonyl]-heptyl}-formamide]
Compound (1a) fold decrease MIC (S. aureus WCUH29; S. aureus WCUH29, +Azithromycin 0.25 μg/ml {¼ × MIC}): [4] fold
Compound (1a) fold decrease MIC (S. aureus WCUH29; S. aureus WCUH29, +Azithromycin 0.5 μg/ml {½ × MIC}): [8] fold
Compound (1a) fold decrease MIC (S. aureus WCUH29; S. aureus WCUH29, +Ciprofloxacin 0.06 μg/ml {¼ × MIC}): [0] fold
Compound (1a) fold decrease MIC (S. aureus WCUH29; S. aureus WCUH29, +Ciprofloxacin […] {½ × MIC}): [0] fold
Compound (1a) fold decrease MIC (S. aureus WCUH29; S. aureus WCUH29, +Erythromycin 0.06 μg/ml {¼ × MIC}): [4] fold
Compound (1a) fold decrease MIC (S. aureus WCUH29; S. aureus WCUH29, +Erythromycin […] {½ × MIC}): [8] fold
Compound (1a) fold decrease MIC (S. aureus WCUH29; S. aureus WCUH29, +Tylosin 0.25 μg/ml {¼ × MIC}): [4] fold
Compound (1a) fold decrease MIC (S. aureus WCUH29; S. aureus WCUH29, +Tylosin 0.5 μg/ml {½ × MIC}): [32] fold
decrease of MIC by subinhibitory concentrations of azithromycin (S. aureus WCUH29; [2]): 4-8 fold
decrease of MIC by subinhibitory concentrations of erythromycin (S. aureus WCUH29; [2]): 4-8 fold
decrease of MIC by subinhibitory concentrations of tylosin (S. aureus WCUH29; [2]): 4-32 fold
effect of subinhibitory concentrations of ciprofloxacin on antibacterial potency (S. aureus WCUH29; [2]): no effect
MIC (S. aureus WCUH29; +Azithromycin 0.25 μg/ml {¼ × MIC}, read-out: Compound (1a) MIC): 0.5 µg/mL (≈ 1.38 µM)
MIC (S. aureus WCUH29; +Azithromycin 0.5 μg/ml {½ × MIC}, read-out: Compound (1a) MIC): 0.25 µg/mL (≈ 0.688 µM)
MIC (S. aureus WCUH29; +Ciprofloxacin 0.06 μg/ml {¼ × MIC}, read-out: Compound (1a) MIC): 2 µg/mL (≈ 5.5 µM)
MIC (S. aureus WCUH29; +Ciprofloxacin […] {½ × MIC}, read-out: Compound (1a) MIC): 2 µg/mL (≈ 5.5 µM)
MIC (S. aureus WCUH29; +Erythromycin 0.06 μg/ml {¼ × MIC}, read-out: Compound (1a) MIC): 0.5 µg/mL (≈ 1.38 µM)
MIC (S. aureus WCUH29; +Erythromycin […] {½ × MIC}, read-out: Compound (1a) MIC): 0.25 µg/mL (≈ 0.688 µM)
MIC (S. aureus WCUH29; +Tylosin 0.25 μg/ml {¼ × MIC}, read-out: Compound (1a) MIC): 0.5 µg/mL (≈ 1.38 µM)
MIC (S. aureus WCUH29; +Tylosin 0.5 μg/ml {½ × MIC}, read-out: Compound (1a) MIC): 0.06 µg/mL (≈ 0.165 µM)
MIC (S. aureus WCUH29; [3]): 2 µg/mL (≈ 5.5 µM)
MIC (S. aureus strain Smith; [4]): 4 µg/mL
MIC (S. aureus strain Smith; [5]): 0.5 µg/mL
MIC (S. aureus strain Smith; [6]): 0.125 µg/mL
fold decrease MIC, Compound (1a) with ¼ MIC of Tylosin (S. aureus strain Smith; with ¼ MIC of Tylosin): [8] fold
fold decrease MIC, Compound (1a) with ½ MIC of Tylosin (S. aureus strain Smith; with ½ MIC of Tylosin): [32] fold
MIC (S. aureus strain RN4220; [4]): 4 µg/mL
MIC (S. aureus strain RN4220; [5]): 0.25 µg/mL
MIC (S. aureus strain RN4220; [6]): 0.03 µg/mL
fold decrease MIC, Compound (1a) with ¼ MIC of Tylosin (S. aureus strain RN4220; with ¼ MIC of Tylosin): [16] fold
fold decrease MIC, Compound (1a) with ½ MIC of Tylosin (S. aureus strain RN4220; with ½ MIC of Tylosin): [128] fold
MIC (S. aureus strain Oxford; [4]): 2 µg/mL
MIC (S. aureus strain Oxford; [5]): 1 µg/mL
MIC (S. aureus strain Oxford; [6]): 0.25 µg/mL
fold decrease MIC, Compound (1a) with ¼ MIC of Tylosin (S. aureus strain Oxford; with ¼ MIC of Tylosin): [2] fold
fold decrease MIC, Compound (1a) with ½ MIC of Tylosin (S. aureus strain Oxford; with ½ MIC of Tylosin): [8] fold
MIC (S. aureus strain PK1; [4]): 0.5 µg/mL
MIC (S. aureus strain PK1; [5]): 0.06 µg/mL
MIC (S. aureus strain PK1; [6]): 0.016 µg/mL
fold decrease MIC, Compound (1a) with ¼ MIC of Tylosin (S. aureus strain PK1; with ¼ MIC of Tylosin): [8] fold
fold decrease MIC, Compound (1a) with ½ MIC of Tylosin (S. aureus strain PK1; with ½ MIC of Tylosin): [32] fold
MIC, antibiotic with 0.25 ug/m (¼ MIC) of Azithromycin (H. influenzae Q1; [7]): 1 µg/mL
fold decrease MIC, antibiotic with 0.25 ug/m (¼ MIC) of Azithromycin (H. influenzae Q1; [7]): [2] fold
MIC, antibiotic with 0.5 ug/mL (½ MIC) of Azithromycin (H. influenzae Q1; [8]): 0.5 µg/mL
fold decrease MIC, antibiotic with 0.5 ug/mL (½ MIC) of Azithromycin (H. influenzae Q1; [8]): [4] fold
MIC, antibiotic alone (H. influenzae Q1; H. influenzae Q1, single agent (Example 8)): 2 µg/mL (≈ 5.5 µM)
decrease of MIC by subinhibitory concentrations of tylosin ([1]; Example 6): 2-128 fold

CC[C@H]1OC(=O)C[C@@H](O)[C@H](C)[C@@H](O[C@@H]2O[C@H](C)[C@@H](O[C@H]3C[C@@](C)(O)[C@@H](O)[C@H](C)O3)[C@H](N(C)C)[C@H]2O)[C@@H](CC=O)C[C@@H](C)C(=O)/C=C/C(C)=C/[C@@H]1CO[C@@H]1O[C@H](C)[C@@H](O)[C@@H](OC)[C@H]1OC [Tylosin, tylosin]
MIC, antibiotic with 0.5 ug/mL (¼ MIC) of Compound (1a) (S. aureus WCUH29; [9]): 0.25 µg/mL
fold decrease MIC, antibiotic with 0.5 ug/mL (¼ MIC) of Compound (1a) (S. aureus WCUH29; [9]): [4] fold
MIC, antibiotic with 1 ug/mL (½ MIC) of Compound (1a) (S. aureus WCUH29; [10]): 0.125 µg/mL
fold decrease MIC, antibiotic with 1 ug/mL (½ MIC) of Compound (1a) (S. aureus WCUH29; [10]): [8] fold
MIC, antibiotic alone (S. aureus WCUH29; S. aureus WCUH29, single agent): 1 µg/mL (≈ 1.09 µM)
decrease of MIC by subinhibitory concentrations of Compound (1a) (S. aureus WCUH29; S. aureus, Example 3): 4-8 fold
MIC (S. aureus WCUH29; [3]): 1 µg/mL (≈ 1.09 µM)
MIC (S. aureus strain Smith; [11]): 1 µg/mL
MIC, +Compound (1a) [¼ × MIC] (S. aureus strain Smith; with ¼ × MIC of Compound (1a)): 0.25 µg/mL
fold decrease MIC, +Compound (1a) [¼ × MIC] (S. aureus strain Smith; with ¼ × MIC of Compound (1a)): [4] fold
MIC, +Compound (1a) [½ × MIC] (S. aureus strain Smith; with ½ × MIC of Compound (1a)): 0.125 µg/mL
fold decrease MIC, +Compound (1a) [½ × MIC] (S. aureus strain Smith; with ½ × MIC of Compound (1a)): [8] fold
MIC (S. aureus strain RN4220; [11]): 1 µg/mL
fold decrease MIC, +Compound (1a) [¼ × MIC] (S. aureus strain RN4220; with ¼ × MIC of Compound (1a)): [8] fold
MIC, +Compound (1a) [½ × MIC] (S. aureus strain RN4220; with ½ × MIC of Compound (1a)): 0.06 µg/mL
fold decrease MIC, +Compound (1a) [½ × MIC] (S. aureus strain RN4220; with ½ × MIC of Compound (1a)): [16] fold
MIC (S. aureus strain Oxford; [11]): 0.5 µg/mL
MIC, +Compound (1a) [¼ × MIC] (S. aureus strain Oxford; with ¼ × MIC of Compound (1a)): 0.06 µg/mL
fold decrease MIC, +Compound (1a) [¼ × MIC] (S. aureus strain Oxford; with ¼ × MIC of Compound (1a)): [8] fold
MIC, +Compound (1a) [½ × MIC] (S. aureus strain Oxford; with ½ × MIC of Compound (1a)): 0.03 µg/mL
fold decrease MIC, +Compound (1a) [½ × MIC] (S. aureus strain Oxford; with ½ × MIC of Compound (1a)): [16] fold
MIC (S. aureus strain PK1; [11]): 2 µg/mL
MIC, +Compound (1a) [¼ × MIC] (S. aureus strain PK1; with ¼ × MIC of Compound (1a)): 0.25 µg/mL
fold decrease MIC, +Compound (1a) [¼ × MIC] (S. aureus strain PK1; with ¼ × MIC of Compound (1a)): [8] fold
MIC, +Compound (1a) [½ × MIC] (S. aureus strain PK1; with ½ × MIC of Compound (1a)): 0.06 µg/mL
fold decrease MIC, +Compound (1a) [½ × MIC] (S. aureus strain PK1; with ½ × MIC of Compound (1a)): [32] fold
MIC, antibiotic with 0.5 ug/mL (¼ MIC) of Compound (1a) (H. influenzae Q1; [12]): 8 µg/mL
fold decrease MIC, antibiotic with 0.5 ug/mL (¼ MIC) of Compound (1a) (H. influenzae Q1; [12]): [2] fold
MIC, antibiotic with 1 ug/mL (½ MIC) of Compound (1a) (H. influenzae Q1; [13]): 4 µg/mL
fold decrease MIC, antibiotic with 1 ug/mL (½ MIC) of Compound (1a) (H. influenzae Q1; [13]): [4] fold
MIC, antibiotic alone (H. influenzae Q1; H. influenzae Q1, single agent (Example 7)): 16 µg/mL (≈ 17.5 µM)
decrease of MIC by subinhibitory concentrations of Compound (1a) (H. influenzae Q1; H. influenzae, text summary of Example 7): 2-4 fold
decrease of MIC by subinhibitory concentrations of Compound (1a) ([1]; text summary of Example 5): 4-32 fold
